Source: patent USRE40086E1, “Method for treating bacterial infection with novel 7-substituted-9-substituted amino 6-demethyl-6-deoxytetracyclines” (Wyeth Holdings Corporation, priority 1991, dated 2008)
Converted amounts (≈) assume the structure as drawn.

Experiments:
Test in all cases: MIC, agar dilution
Type in all cases: cell-based
[1] = system: S. aureus UBMS 88-5 (tetM); conditions: S. aureus UBMS 88-5 (tetM)
[2] = system: S. aureus UBMS 88-4 (Sensitive); conditions: S. aureus UBMS 88-4 (Sensitive)
[3] = system: S. aureus UBMS 90-1 (tetM); conditions: S. aureus UBMS 90-1 (tetM)
[4] = system: S. aureus UBMS 90-2 (tetM); conditions: S. aureus UBMS 90-2 (tetM)
[5] = system: S. aureus UBMS 90-3 (Sensitive); conditions: S. aureus UBMS 90-3 (Sensitive)
[6] = system: S. aureus UBMS 88-7 (tetK); conditions: S. aureus UBMS 88-7 (tetK)
[7] = system: S. aureus IVES 2943 (meth. resistant); conditions: S. aureus IVES 2943 (meth. resistant)
[8] = system: S. aureus IVES 1983 (meth. resistant); conditions: S. aureus IVES 1983 (meth. resistant)
[9] = system: S. aureus ATCC 29213 (Sensitive); conditions: S. aureus ATCC 29213 (Sensitive)
[10] = system: S. aureus Smith (Sensitive); conditions: S. aureus Smith (Sensitive)
[11] = system: S. haemolyticus AVAH 88-3; conditions: S. haemolyticus AVAH 88-3
E. faecalis 12201 = conditions: E. faecalis 12201
E. faecalis ATCC 29212 = conditions: E. faecalis ATCC 29212
E. coli UBMS 88-1 (tetB) = conditions: E. coli UBMS 88-1 (tetB)
[12] = system: E. coli UBMS 88-2 (Sensitive); conditions: E. coli UBMS 88-2 (Sensitive)
E. coli UBMS 89-1 (tetM) = conditions: E. coli UBMS 89-1 (tetM)
[13] = system: E. coli UBMS 89-2 (Sensitive); conditions: E. coli UBMS 89-2 (Sensitive)
E. coli ATCC 25922 = conditions: E. coli ATCC 25922

Structure (SMILES)	MIC [1]	MIC [2]	MIC [3]	MIC [4]	MIC [5]	MIC [6]	MIC [7]	MIC [8]	MIC [9]	MIC [10]	MIC [11]	MIC (E. faecalis 12201)	MIC (E. faecalis ATCC 29212)	MIC (E. coli UBMS 88-1 (tetB))	MIC [12]	MIC (E. coli UBMS 89-1 (tetM))	MIC [13]	MIC (E. coli ATCC 25922)
CC(=O)OCC(=O)Nc1cc(N(C)C)c2c(c1O)C(=O)C1=C(O)[C@]3(O)C(=O)C(C(N)=O)=C(O)[C@@H](N(C)C)[C@@H]3C[C@@H]1C2 [K, 9-[[(Acetyloxy)acetyl]amino)-7-(dimethylamino)-6-demethyl-6-deoxytetracycline]	0.25 µg/mL (≈ 0.437 µM)	0.12 µg/mL (≈ 0.21 µM)	0.25 µg/mL (≈ 0.437 µM)	0.06 µg/mL (≈ 0.105 µM)	0.03 µg/mL (≈ 0.0524 µM)	32 µg/mL (≈ 55.9 µM)	32 µg/mL (≈ 55.9 µM)	32 µg/mL (≈ 55.9 µM)	≦0.015 μg/ml	≦0.015 μg/ml	0.5 µg/mL (≈ 0.873 µM)	0.25 µg/mL (≈ 0.437 µM)	0.06 µg/mL (≈ 0.105 µM)	16 µg/mL (≈ 27.9 µM)	4 µg/mL (≈ 6.99 µM)	1 µg/mL (≈ 1.75 µM)	8 µg/mL (≈ 14 µM)	4 µg/mL (≈ 6.99 µM)
CN(C)C1C(O)=C(C(N)=O)C(=O)C2(O)C(O)=C3C(=O)c4c(O)c(NC=O)cc(I)c4CC3CC12.O=S(=O)(O)O (stereo not drawn) [G, 9-(Formylamino)-7-iodo-6-demethyl-6-deoxytetracycline sulfate]	1 µg/mL	<0.015 µg/mL	4 µg/mL	0.5 µg/mL	0.03 µg/mL	16 µg/mL	32 µg/mL	32 µg/mL		0.03 µg/mL	0.06 µg/mL	16 µg/mL	0.25 µg/mL	>32 µg/mL	1 µg/mL	1 µg/mL	1 µg/mL	0.5 µg/mL
CN(C)c1cc(NC(=O)C(F)(F)F)c(O)c2c1C[C@H]1C[C@H]3[C@H](N(C)C)C(O)=C(C(N)=O)C(=O)[C@@]3(O)C(O)=C1C2=O.O=S(=O)(O)O [I, 7-(Dimethylamino)-9-((trifluoroacetyl)amino]-g-demethyl-6-deoxytetracycline sulfate]	16 µg/mL	8 µg/mL	16 µg/mL	16 µg/mL	4 µg/mL	16 µg/mL		32 µg/mL	1 µg/mL	8 µg/mL	0.5 µg/mL	16 µg/mL	8 µg/mL	>32 µg/mL	32 µg/mL	32 µg/mL	32 µg/mL	32 µg/mL
CN(C)c1cc(NS(=O)(=O)c2ccc([N+](=O)[O-])cc2)c(O)c2c1CC1CC3C(N(C)C)C(O)=C(C(N)=O)C(=O)C3(O)C(O)=C1C2=O (stereo not drawn) [AA, 7-(Dimethylamino)-9-[[(4-nitrophenyl)sulfonyl]amino]-6-demethyl-6-deoxytetracycline]	0.12 µg/mL (≈ 0.182 µM)	0.12 µg/mL (≈ 0.182 µM)	0.5 µg/mL (≈ 0.76 µM)	0.12 µg/mL (≈ 0.182 µM)	0.06 µg/mL (≈ 0.0912 µM)	2 µg/mL (≈ 3.04 µM)	4 µg/mL (≈ 6.08 µM)	8 µg/mL (≈ 12.2 µM)	0.12 µg/mL (≈ 0.182 µM)	0.12 µg/mL (≈ 0.182 µM)	2 µg/mL (≈ 3.04 µM)		0.12 µg/mL (≈ 0.182 µM)	16 µg/mL (≈ 24.3 µM)	8 µg/mL (≈ 12.2 µM)	4 µg/mL (≈ 6.08 µM)	16 µg/mL (≈ 24.3 µM)	4 µg/mL (≈ 6.08 µM)
CN(C)c1cc(NC(=O)c2ccccc2F)c(O)c2c1CC1CC3C(N(C)C)C(O)=C(C(N)=O)C(=O)C3(O)C(O)=C1C2=O (stereo not drawn) [S, 7-(Dimethylamino)-9-[(2-fluorobenzoyl)amino]-6-demethyl-6-deoxytetracycline]	2 µg/mL (≈ 3.36 µM)	2 µg/mL (≈ 3.36 µM)	4 µg/mL (≈ 6.73 µM)	1 µg/mL (≈ 1.68 µM)	1 µg/mL (≈ 1.68 µM)	8 µg/mL (≈ 13.5 µM)	8 µg/mL (≈ 13.5 µM)	4 µg/mL (≈ 6.73 µM)	0.5 µg/mL (≈ 0.841 µM)	1 µg/mL (≈ 1.68 µM)	4 µg/mL (≈ 6.73 µM)	4 µg/mL (≈ 6.73 µM)	4 µg/mL (≈ 6.73 µM)	>32 µg/mL	>32 µg/mL		>32 µg/mL	>32 µg/mL
COc1ccc(C(=O)Nc2cc(N(C)C)c3c(c2O)C(=O)C2=C(O)C4(O)C(=O)C(C(N)=O)=C(O)C(N(C)C)C4CC2C3)cc1 (stereo not drawn) [Q, 7-(Dimethylamino)-9-[(4-methoxybenzoyl)amino)-6-demethyl-6-deoxytetracycline]	8 µg/mL (≈ 13.2 µM)	8 µg/mL (≈ 13.2 µM)	8 µg/mL (≈ 13.2 µM)	8 µg/mL (≈ 13.2 µM)	4 µg/mL (≈ 6.59 µM)	16 µg/mL (≈ 26.4 µM)	8 µg/mL (≈ 13.2 µM)	16 µg/mL (≈ 26.4 µM)	1 µg/mL (≈ 1.65 µM)	4 µg/mL (≈ 6.59 µM)	8 µg/mL (≈ 13.2 µM)	8 µg/mL (≈ 13.2 µM)	8 µg/mL (≈ 13.2 µM)	>32 µg/mL	>32 µg/mL		>32 µg/mL	>32 µg/mL
CC(=O)Nc1cc(I)c2c(c1O)C(=O)C1=C(O)C3(O)C(=O)C(C(N)=O)=C(O)C(N(C)C)C3CC1C2.O=S(=O)(O)O (stereo not drawn) [H, 9-(Acetylamino)-7-iodo-6-demethyl-6-deoxytetracycline sulfate]	1 µg/mL	0.25 µg/mL	1 µg/mL	0.5 µg/mL	0.12 µg/mL	16 µg/mL	32 µg/mL	32 µg/mL	0.22 µg/mL	0.12 µg/mL	2 µg/mL	2 µg/mL	0.25 µg/mL		>128 µg/mL	128 µg/mL	16 µg/mL	16 µg/mL
CC(=O)Nc1nc(C)c(S(=O)(=O)Nc2cc(N(C)C)c3c(c2O)C(=O)C2=C(O)C4(O)C(=O)C(C(N)=O)=C(O)C(N(C)C)C4CC2C3)s1 (stereo not drawn) [GG, 9-[[[(2-Acetylamino)-4-methyl-5-thiazolyl]sulfonyl]amino]-7-(dimethylamino)-6-demethyl-6-deoxytetracycline]	16 µg/mL (≈ 23.2 µM)	4 µg/mL (≈ 5.79 µM)	32 µg/mL (≈ 46.3 µM)	4 µg/mL (≈ 5.79 µM)	2 µg/mL (≈ 2.9 µM)	32 µg/mL (≈ 46.3 µM)	>32 µg/mL	32 µg/mL (≈ 46.3 µM)	0.5 µg/mL (≈ 0.724 µM)	2 µg/mL (≈ 2.9 µM)			1 µg/mL (≈ 1.45 µM)	>32 µg/mL	>32 µg/mL	32 µg/mL (≈ 46.3 µM)	>32 µg/mL	>32 µg/mL
CN(C)c1cc(NC(=O)c2ccccc2)c(O)c2c1CC1CC3C(N(C)C)C(O)=C(C(N)=O)C(=O)C3(O)C(O)=C1C2=O (stereo not drawn) [P, 9-(Benzoylamino)-7-(dimethylamino)-6-demethyl-6-deoxytetracycline]	4 µg/mL (≈ 6.94 µM)	4 µg/mL (≈ 6.94 µM)	4 µg/mL (≈ 6.94 µM)	4 µg/mL (≈ 6.94 µM)	1 µg/mL (≈ 1.73 µM)	8 µg/mL (≈ 13.9 µM)	16 µg/mL (≈ 27.7 µM)	8 µg/mL (≈ 13.9 µM)	0.25 µg/mL (≈ 0.434 µM)	1 µg/mL (≈ 1.73 µM)	4 µg/mL (≈ 6.94 µM)	8 µg/mL (≈ 13.9 µM)	4 µg/mL (≈ 6.94 µM)	>32 µg/mL	>32 µg/mL		>32 µg/mL	>32 µg/mL
